Experimental data published in patent publication US20050209232A1, “Pyridazinone ureas as antagonists of alpha4 integrins” (priority 2004, published 2005).

Assays:
[1] = tested on: Balb/c mice; test: In Vivo Model for Leukocytosis; set-up: species or system mouse; settings: bled 1-1.5 h after administration
From the text: In Vivo Model for Leukocytosis
Leukocytosis the increase in circulating white blood cells (leukocytes). This can be brought about by preventing leukocyte binding to integrin counter-receptor adhesion molecules expressed on high endothelial venules. This cell adhesion occurs between immunoglobulin superfamily molecules and integrins. Relevant examples of these paired interactions include Intracellular Adhesion Molecule-1 and AlphaL Beta2 integrin, Vascular Cell Adhesion Molecule-1 and α4β1 integrin, and Mucosal Addressin Cell Adhesion Molecule-1 and α4β7 integrin, respectively.
In this model, a compound that antagonizes these leukocyte-endothelial interactions will cause an increase in circulating leukocytes, defined as leukocytosis, as measured at 1-1.5 h post-administration. This leukocytosis is indicative that normal lymphocyte or leukocyte emigration from the peripheral circulation was prevented. Similar emigration of cells out of the circulation into inflamed tissues is responsible for the progression and maintainance of the inflammatory state. Leukocytosis is an indication that lymphocyte and leukocyte extravasation is prevented, and is predictive of general anti-inflammatory activity.
One week prior to being tested, 7-10 week old female Balb/c mice, n=8 per group, were bled and randomized according to leukocyte counts. One week later, the mice were adminstered test compound orally or subcutaneously and then bled 1-1.5 h after drug administration, approximately 1 h after the peak blood concentration of the compound has occurred. Whole blood, 250-350 microliters, was collected from each mouse into potassium-EDTA […] collection tubes (Becton-Dickenson) and mixed to prevent clotting.
Cell counts and differential counts on the whole blood preparation were performed using an Advia 120 Hematology System (Bayer Diagnostics). Cell counts as total leukocytes and as total lympohcytes were made and compared to counts made from mice dosed with vehicle only. Data were reported as percent of vehicle control for lymphocyte counts and total leukocyte counts.
Statistical analyses were performed using ANOVA with Dunnet's multiple comparison test.

[2] = molecular target: T1, human α4β7 integrin (Homo sapiens, UniProt P13612+P26010); test: α4β7-K562 Cell Adhesion Assay (α4β7 Mediated Adhesion/MAdCAM-1); type: cell-based; settings: K562 cells expressing human α4β7 adhering to FLAG-hMAdCAM-1, 1 mM Mn2+
T1 construct: expressed in transfected cells; host or cells: K562 cells, stably transfected
T1 sequence (P13612 34-1032): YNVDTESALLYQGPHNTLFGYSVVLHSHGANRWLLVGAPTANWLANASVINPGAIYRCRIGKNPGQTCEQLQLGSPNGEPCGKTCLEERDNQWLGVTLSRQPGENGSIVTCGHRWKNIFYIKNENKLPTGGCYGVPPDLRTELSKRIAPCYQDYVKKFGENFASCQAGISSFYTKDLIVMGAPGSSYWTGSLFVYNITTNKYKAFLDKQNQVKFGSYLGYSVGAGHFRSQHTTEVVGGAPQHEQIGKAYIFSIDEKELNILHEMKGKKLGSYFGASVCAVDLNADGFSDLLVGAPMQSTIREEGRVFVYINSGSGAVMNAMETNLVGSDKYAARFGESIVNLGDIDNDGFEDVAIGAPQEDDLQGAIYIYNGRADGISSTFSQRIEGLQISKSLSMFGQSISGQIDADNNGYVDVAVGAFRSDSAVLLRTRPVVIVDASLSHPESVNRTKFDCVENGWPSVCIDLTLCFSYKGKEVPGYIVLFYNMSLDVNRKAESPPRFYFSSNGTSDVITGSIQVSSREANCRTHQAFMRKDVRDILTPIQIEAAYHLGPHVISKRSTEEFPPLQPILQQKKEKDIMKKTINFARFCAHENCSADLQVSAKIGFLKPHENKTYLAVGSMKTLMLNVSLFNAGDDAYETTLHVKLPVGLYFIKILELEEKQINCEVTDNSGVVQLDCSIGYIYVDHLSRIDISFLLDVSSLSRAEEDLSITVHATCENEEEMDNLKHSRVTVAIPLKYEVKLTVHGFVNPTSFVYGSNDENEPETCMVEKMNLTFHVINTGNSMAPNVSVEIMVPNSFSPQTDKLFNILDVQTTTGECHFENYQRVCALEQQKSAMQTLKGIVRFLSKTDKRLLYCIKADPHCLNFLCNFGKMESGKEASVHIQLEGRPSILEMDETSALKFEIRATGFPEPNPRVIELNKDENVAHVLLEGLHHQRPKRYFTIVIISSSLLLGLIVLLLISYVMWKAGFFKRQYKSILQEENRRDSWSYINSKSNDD
T1 sequence (P26010 20-798): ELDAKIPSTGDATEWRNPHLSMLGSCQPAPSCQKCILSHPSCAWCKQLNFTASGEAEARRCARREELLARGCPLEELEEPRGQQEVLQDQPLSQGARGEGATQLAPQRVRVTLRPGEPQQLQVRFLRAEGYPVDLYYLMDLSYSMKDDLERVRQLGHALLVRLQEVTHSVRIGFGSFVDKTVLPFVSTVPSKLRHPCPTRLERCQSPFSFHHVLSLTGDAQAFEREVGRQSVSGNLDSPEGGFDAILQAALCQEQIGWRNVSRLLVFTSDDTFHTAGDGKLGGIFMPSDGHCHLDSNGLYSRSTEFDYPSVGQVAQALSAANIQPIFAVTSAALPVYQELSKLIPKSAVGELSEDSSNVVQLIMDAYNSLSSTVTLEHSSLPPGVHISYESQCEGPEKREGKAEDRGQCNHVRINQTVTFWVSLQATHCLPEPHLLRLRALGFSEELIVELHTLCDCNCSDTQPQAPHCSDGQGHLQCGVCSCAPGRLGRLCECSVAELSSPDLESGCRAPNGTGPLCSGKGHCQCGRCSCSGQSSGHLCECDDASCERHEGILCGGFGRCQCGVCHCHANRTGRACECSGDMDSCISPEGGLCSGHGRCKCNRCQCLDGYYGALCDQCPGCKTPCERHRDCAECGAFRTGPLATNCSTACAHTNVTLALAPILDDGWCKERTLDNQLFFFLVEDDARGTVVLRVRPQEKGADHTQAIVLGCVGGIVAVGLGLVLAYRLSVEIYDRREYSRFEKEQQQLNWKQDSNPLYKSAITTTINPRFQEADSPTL
Description: α4β7-K562 Cell Adhesion Assay (α4β7 Mediated Adhesion/MAdCAM-1)
M2 anti-FLAG Antibody Coated 96-well plates (Sigma) were coated for 1 hour at 4° C. with 2-8 μL/well recombinant FLAG-hMAdCAM-1 contained in 100 μL of Dulbecco's PBS, pH 7.4, with 1% BSA and 1 mM Mn^2+ (PBS-BSA-Mn). Plates were washed once with PBS-BSA-Mn. Buffer was removed and compounds to be tested (50 μL) were added at 2× concentration. Stably transfected K562 cells expressing human α4β7 integrin, (50 μL at 2×10^6/mL) that had been labeled with 100 μg/mL carboxymethyl fluorescein diacetate succinimidyl ester (CFDA-SE; Molecular Probes) for 15 min at 37° C. were added to each well and allowed to adhere for 1 h at room temperature. Plates were washed 4× in PBS-BSA-Mn and then cells were lysed for 2 min by addtion of 100 μL of PBS without Ca^2+, Mg^2+ supplemented with 0.1 M NaOH. The plate was read on a 96-well fluorescent plate reader at 485 nm excitation and 530 nm emission.

[3] = molecular target: T2, α4β1 (Homo sapiens, UniProt P05556+P13612); test: Ramos Cell Adhesion Assay (α4β1 Mediated Adhesion/VCAM-1); type: cell-based; settings: Ramos cells adhering to recombinant hVCAM-1
T2 construct: Ramos cells, (50 μL at 2×10^6/mL) labeled with 5 μM Calcein AM; endogenous in cells; host or cells: Ramos cells
T2 sequence (P05556 21-798, one chain of several): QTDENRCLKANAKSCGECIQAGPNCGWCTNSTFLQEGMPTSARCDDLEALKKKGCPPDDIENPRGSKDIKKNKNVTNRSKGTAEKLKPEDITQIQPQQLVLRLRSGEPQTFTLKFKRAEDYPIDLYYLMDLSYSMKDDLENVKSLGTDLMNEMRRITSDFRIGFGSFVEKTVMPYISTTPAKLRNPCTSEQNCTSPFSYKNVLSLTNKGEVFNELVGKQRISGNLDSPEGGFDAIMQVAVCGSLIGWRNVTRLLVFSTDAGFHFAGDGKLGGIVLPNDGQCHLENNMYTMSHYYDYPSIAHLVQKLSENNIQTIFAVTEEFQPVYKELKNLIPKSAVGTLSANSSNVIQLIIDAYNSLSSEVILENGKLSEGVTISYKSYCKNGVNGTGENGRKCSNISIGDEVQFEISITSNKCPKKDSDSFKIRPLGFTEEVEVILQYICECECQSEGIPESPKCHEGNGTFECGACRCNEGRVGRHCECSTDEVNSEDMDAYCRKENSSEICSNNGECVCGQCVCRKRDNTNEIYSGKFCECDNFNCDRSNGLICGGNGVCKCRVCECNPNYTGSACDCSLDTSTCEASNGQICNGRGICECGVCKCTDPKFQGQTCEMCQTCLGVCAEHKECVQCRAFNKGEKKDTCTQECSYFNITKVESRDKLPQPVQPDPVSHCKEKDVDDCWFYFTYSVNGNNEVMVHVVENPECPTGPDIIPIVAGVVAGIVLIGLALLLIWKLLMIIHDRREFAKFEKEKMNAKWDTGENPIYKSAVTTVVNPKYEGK
Description: Ramos Cell Adhesion Assay (α4β1 Mediated Adhesion/VCAM-1)
Immulon 96 well plates (Dynex) were coated with 100 μL recombinant hVCAM-1 at 4.0 μg/mL in 0.05 M NaCO3 buffer pH 9.0 overnight at 4° C. (R&D Systems). Plates were washed 2 times in PBS with 1% BSA and blocked for 1 h@room temperature in this buffer. PBS was removed and compounds to be tested (50 μL) were added at 2× concentration. Ramos cells, (50 μL at 2×10^6/mL) labeled with 5 μM Calcein AM (Molecular Probes) for 1 h at 37° C., were added to each well and allowed to adhere for 1 h at room temperature. Plates were washed 4 × in PBS+1% BSA and cells were lysed for 15 minutes in 100 μL of 1 M Tris pH 8.0 with 1% SDS. The plate was read at 485 nm excitation and 530 nm emission.

COc1cnn(C)c(=O)c1-c1ccc(C[C@H](NC(=O)N(C)CC(C)C)C(=O)OCCO)cc1 [Cpd 21, 2-(3-Isobutyl-3-methyl-ureido)-3-[4-(5-methoxy-2-methyl-3-oxo-2,3-dihydro-pyridazin-4-yl)-phenyl]-propionic acid 2-hydroxy-ethyl ester]
Lymphoycte Counts % of Vehicle Control ([1]; 3 mg/kg po): 148.1 % of Vehicle Control | Total Leukocyte Count % of Vehicle Control ([1]; 3 mg/kg po): 121.9 % of Vehicle Control | Lymphoycte Counts % of Vehicle Control ([1]; 10 mg/kg po): 156.8 % of Vehicle Control | Total Leukocyte Count % of Vehicle Control ([1]; 10 mg/kg po): 118.7 % of Vehicle Control | Lymphoycte Counts % of Vehicle Control ([1]; 30 mg/kg po): 189.6 % of Vehicle Control | Total Leukocyte Count % of Vehicle Control ([1]; 30 mg/kg po): 131.0 % of Vehicle Control | IC50 [2]: 2900 nM | IC50 [3]: > 5000 nM
